Test results reported in publication PMC4789278, “Pharmacological inhibition of LSD1 for the treatment of MLL-rearranged leukemia” (Journal of Hematology & Oncology, 2016).
Where two headings read alike, the source gives them in different places.

Experiments:
NB4 leukemia cells = assay: Antiproliferation assay (XTT), NB4; type: cell-based; settings: Homo sapiens, 360 h; 15-day treatment; non-MLL leukemia cells; read-out: NB4 EC50 (antiproliferative)
Procedure: (§1) We next examined the spectrum of antitumor activity for compounds 1–4. These compounds were incubated with a panel of six human leukemia and solid tumor cell lines, including two MLL-rearranged leukemia cells MV4-11 and Molm-13 containing fusion oncogenes MLL-AF4 and -AF9, respectively. […] Also included in the studies are breast cancer MCF-7 and prostate cancer LNCaP cells. […]
(§2) Proliferation inhibition assay for suspension leukemia cells was performed using an XTT assay kit (Roche) with our previously described method. Proliferation inhibition assay for solid tumor cell lines MCF-7 and LNCaP was performed using our previous described MTT assay. The antiproliferation EC50 values were determined by Prism, and the reported results were the mean values of at least three independent experiments.

U937 leukemia cells = assay: Antiproliferation assay (XTT), U937; type: cell-based; settings: Homo sapiens, U-937, 360 h; 15-day treatment; non-MLL leukemia cells; read-out: U937 EC50 (antiproliferative)
Procedure: as §1, §2

[1] = tested on: prostate cancer LNCaP cells; assay: Antiproliferation assay (MTT), LNCaP; type: cell-based; settings: Homo sapiens, 360 h, 15-day treatment, read-out: LNCaP EC50 (antiproliferative)
Procedure: as §1, §2

human MAO-A = target: T1, human MAO-A (Homo sapiens, UniProt P21397); assay: MAO-A inhibition (MAO-Glo); type: biochemical
T1 construct: purchased Sigma
T1 sequence (P21397 1-527): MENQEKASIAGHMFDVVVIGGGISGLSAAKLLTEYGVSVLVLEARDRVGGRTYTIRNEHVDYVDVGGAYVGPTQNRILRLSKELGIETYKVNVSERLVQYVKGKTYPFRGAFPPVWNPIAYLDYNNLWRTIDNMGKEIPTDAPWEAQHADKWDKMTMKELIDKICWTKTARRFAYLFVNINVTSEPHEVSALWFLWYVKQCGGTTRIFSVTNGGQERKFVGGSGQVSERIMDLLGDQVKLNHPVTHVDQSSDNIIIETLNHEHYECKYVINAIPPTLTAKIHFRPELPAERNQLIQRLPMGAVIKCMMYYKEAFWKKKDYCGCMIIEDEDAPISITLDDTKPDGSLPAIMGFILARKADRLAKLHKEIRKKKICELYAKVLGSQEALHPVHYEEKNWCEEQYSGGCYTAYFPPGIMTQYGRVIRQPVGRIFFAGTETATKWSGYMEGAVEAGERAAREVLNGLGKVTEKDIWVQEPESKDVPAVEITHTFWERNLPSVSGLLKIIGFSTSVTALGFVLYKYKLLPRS
Procedure: The cyclopropylamine LSD1 inhibitors were generally derived from MAO-A/-B inhibitor tranylcypromine, an antidepression drug. Because MAO-A and -B play important roles in the degradation of neurotransmitters (e.g., serotonin and dopamine) in the central nervous system, selective inhibition for LSD1 is highly desirable.
Recombinant human MAO-A and -B were purchased from Sigma. The inhibitory activity was determined using MAO-Glo assay kit (Promega). In brief, following the manufacturer’s protocol, assays were performed in 384-well white plates (Corning) using MAO-A or -B (100 nM) with a final volume of 20 μL. Reactions were quenched after 60 min by adding reconstituted luciferin detection reagent (20 μL/well); 20 min after addition of the detection reagent, the luminescence of each well was measured using Beckman DTX-880 microplate reader. IC50 calculation was similar to that of LSD1.

MV4-11 cells [2] = assay: FACS-based Annexin-V apoptosis assay; type: cell-based, human
Procedure: (§3) For Annexin V apoptosis assay, 10^5 cells/well were incubated with increasing concentrations of a compound for 7 or 14 days. Apoptosis was determined using the FITC Annexin V Apoptosis Detection Kit I (BD Bioscience) using the manufacturer’s protocol. For other FACS assays, cells were labeled with fluorochrome-conjugated monoclonal antibodies against human CD14, CD11b, CD45, or CD33 (BD Biosciences) according to the manufacturer’s recommendation. Cells were analyzed using a FACS Calibur (BD Biosciences/Applied Biosystems), and data were processed using the program Flowjo (version7.6.5).

MV4-11 cells [3] = assay: FACS of differentiation markers CD14 / CD11b; type: cell-based, human; settings: for cell populations expressing high levels of CD14: treatment for 12 days
Procedure: Importantly, only these stem-like cancer cells can form new tumors when transplanted into a new host, while the other non-stem cancer cells fail to do so. These stem-like cancer cells are more drug resistant and believed to be responsible for tumor metastasis and relapse. […] CD14 and CD11b are two cell surface proteins characteristic to differentiated macrophages/monocytes. […] Similarly, incubation with 2 led to considerably more CD11b^+ cells (Fig. 3b).
as §3

[4] = tested on: human primary leukemia cells from an AML patient with MLL-ENL fusion oncogene; assay: Colony-forming assay; type: cell-based; settings: 336 h, colonies counted after 14 days, read-out: colony-forming ability EC50
Procedure: Colony-forming assay using non-serum culture media represents a useful method to assess self-renewal capacity of stem-like cancer cells. The number of cell colonies formed in the assay reflects the proportion of stem-like cells in a given number of cancer cells. […] Human MLL-rearranged AML samples will be obtained from the Children’s Oncology Group (COG) Biopathology Center, in accordance with the IRB-approved protocol H-24170. The colony-forming assay was performed according to our previously published method. After 14 days, the colony number of each culture dish was counted and imported into Prism 5.0 and EC50 values were determined by using the sigmoidal dose response curve fitting in the software.

H3K4me2 in MV4-11 cells = assay: Western blot of histone H3K4 methylation; type: cell-based, human; settings: 3 days
Procedure: Compounds 1 and 2 were selected for further biological activity testing. MV4-11 cells were treated with these two compounds for 3 days. […] Other researchers observed the similar results using a different LSD1 inhibitor.
With increasing concentrations of a compound for […], 10^6 cells/well were incubated and histones extracted with the EpiQuik™ Total Histone Extraction Kit (Epigentek) according to the manufacturer’s protocol. Equal amounts of histones (2 μg) were separated on SDS-PAGE and transferred to PVDF membranes. The blots were probed with H3K4-Me2 and H3 primary antibodies (Cell Signaling), followed by antirabbit IgG (Thermo Scientific) secondary antibodies.

[5] = tested on: HoxA9 and Meis1 expression in MV4-11 cells; assay: Quantitative real-time PCR of HoxA9 and Meis1; type: cell-based, human
Procedure: Next, we examined whether LSD1 inhibition can block the expression of HoxA9 and Meis1, whose overexpression has been observed in MLL-rearranged leukemia.
For 3 days, 10^4 cells/well were incubated with a compound, and the RNA was extracted from cells using RNeasy mini kit (QIAGEN); 100–1000 ng of total RNA was reverse transcribed using iScript™ Reverse Transcription Supermix (Bio-Rad) using the manufacturer’s protocol. Quantitative real-time PCR was carried out using Fast SYBR Green Master Mix (Applied Biosystems) according to the manufacturer’s instructions. Measurements were performed in triplicate, using GAPDH as the reference gene. Real-time PCR was performed using Biosystems Step One Plus detection system. The following sequences of primers are used: […]

[6] = range covers MAO-A and MAO-B, read-out: IC50 against MAO-A and -B (range over both enzymes)

SMILES | EC50 (NB4 leukemia cells) | EC50 (U937 leukemia cells) | EC50 [1] | IC50 (human MAO-A; [6]) | IC50 (human MAO-A; read-out: MAO-A IC50) | apoptosis of MV4-11 cells (MV4-11 cells [2]; 30 nM, day 7) | apoptosis of MV4-11 cells (MV4-11 cells [2]; 30 nM, day 14) | apoptosis of MV4-11 cells (MV4-11 cells [2]; 300 nM, day 7) | apoptosis of MV4-11 cells (MV4-11 cells [2]; 300 nM, day 14) | cell populations expressing high levels of CD14 (MV4-11 cells [3]) | EC50 [4] | cellular levels of H3K4me2 (H3K4me2 in MV4-11 cells) | expression of HoxA9 and Meis1 [5] | apoptosis of MV4-11 cells (MV4-11 cells [2]; 0.1 μM, 7 days) | apoptosis of MV4-11 cells (MV4-11 cells [2]; 0.1 μM, 14 days) | apoptosis of MV4-11 cells (MV4-11 cells [2]; 1 μM, 7 days) | apoptosis of MV4-11 cells (MV4-11 cells [2]; 1 μM, 14 days) | CD11b+ cells (MV4-11 cells [3]; 1 μM)
CN1CCN(C(=O)CNC2CC2c2ccc(OCc3ccccc3)cc2)CC1 (stereo not drawn) [Compound 1] | 19.4 µM | 18.9 µM | 3.7 µM | 17.5 to 480 µM | 17.5 µM | 12% | 20% | 13% | 26% | > 90% | 0.43 µM | increase cellular levels of H3K4me2 in a dose-dependent manner | significantly decrease the expression of both HoxA9 and Meis1 in a dose-dependent manner | – | – | – | – | –
CN1CCN(C(=O)CNC2CC2c2ccc(-c3ccc(F)nc3)cc2)CC1 (stereo not drawn) [Compound 2] | 18.9 µM | 34.6 µM | 10 µM | 17.5 to 480 µM | 120 µM | – | – | – | – | > 90% | 0.52 µM | increase cellular levels of H3K4me2 in a dose-dependent manner | significantly decrease the expression of both HoxA9 and Meis1 in a dose-dependent manner | 11% | 13% | 45% | 49% | 19.5%
